Legend:
Assay type in all cases: cell-based
[1] = tested on: Aeromonas hydrophila; test: MIC against Gram-negative bacteria: Aeromonas hydrophila; settings: 5×10^5 CFU/mL
Summary of the method: (§1)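 Bacteria grown in LB at 37° C with shaking to McFarland 0.5, pelleted and resuspended in fresh LB, then seeded at 5×10^5 CFU/mL per well. Purified recombinant human EGF domain proteins were two-fold serially diluted in triplicate and plates shaken at 37° C, 175 rpm. MIC is the lowest protein concentration with no bacterial growth.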

[2] = tested on: Klebsiella pneumonia; test: MIC against Gram-negative bacteria: Klebsiella pneumonia; settings: 5×10^5 CFU/mL
Summary of the method: as §1

[3] = tested on: Pseudomonas aeruginosa; test: MIC against Gram-negative bacteria: Pseudomonas aeruginosa; settings: 5×10^5 CFU/mL
Summary of the method: as §1

[4] = tested on: Serratia marcescens; test: MIC against Gram-negative bacteria: Serratia marcescens; settings: 5×10^5 CFU/mL
Summary of the method: as §1

[5] = tested on: E. coli BL21; test: MIC against Gram-negative bacteria: E. coli BL21; settings: 5×10^5 CFU/mL
Summary of the method: as §1

[6] = tested on: Enterobacter cloacae; test: MIC against Gram-negative bacteria: Enterobacter cloacae; settings: 5×10^5 CFU/mL
Summary of the method: as §1

[7] = tested on: Moraxella catarrhalis; test: MIC against Gram-negative bacteria: Moraxella catarrhalis; settings: 5×10^5 CFU/mL
Summary of the method: as §1

[8] = tested on: Citrobacter diversus; test: MIC against Gram-negative bacteria: Citrobacter diversus; settings: 5×10^5 CFU/mL
Summary of the method: as §1

[9] = tested on: Proteus mirabilis; test: MIC against Gram-negative bacteria: Proteus mirabilis; settings: 5×10^5 CFU/mL
Summary of the method: as §1

[10] = tested on: E. coli DH5α; test: Antibacterial activity: MIC and growth curve against E. coli DH5α in 96-well plate; settings: minimal inhibitory concentration against E. coli DH5α; 96-well plate, 5×10^5 CFU/mL, 37° C., judged after 8 h
Summary of the method: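 Log-phase DH5α (OD600 about 0.5, 37° C, 185 rpm in LB) was pelleted, resuspended in fresh LB and seeded at 5×10^5 CFU/mL with recombinant protein at 50, 25 and 12.5 μg/mL (two-fold series), in triplicate. Plates were shaken at 175 rpm, 37° C, and OD600 was read every 30 min. MIC was the lowest concentration with no growth.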

[11] = tested on: Proteus vulgaris; test: MIC against Gram-negative bacteria: Proteus vulgaris; settings: 5×10^5 CFU/mL
Summary of the method: as §1

[12] = Aeromonas hydrophila, 96-well plate, 37° C., 10 h
[13] = Klebsiella pneumonia, 96-well plate, 37° C., 10 h
[14] = Pseudomonas aeruginosa, 96-well plate, 37° C., 10 h
[15] = Serratia marcescens, 96-well plate, 37° C., 10 h
[16] = E. coli BL21, 96-well plate, 37° C., 10 h
[17] = Enterobacter cloacae, 96-well plate, 37° C., 10 h
[18] = Moraxella catarrhalis, 96-well plate, 37° C., 10 h
[19] = Citrobacter diversus, 96-well plate, 37° C., 10 h
[20] = Proteus mirabilis, 96-well plate, 37° C., 10 h
[21] = Proteus vulgaris, 96-well plate, 37° C., 10 h
[22] = A. hydrophila, 10 h cultivation at 37° C.
[23] = K. pneumonia, 10 h cultivation at 37° C.
[24] = P. aeruginosa, 10 h cultivation at 37° C.
[25] = S. marcescens, 10 h cultivation at 37° C.
[26] = E. coli BL21, 10 h cultivation at 37° C.
[27] = E. cloacae, 10 h cultivation at 37° C.
[28] = M. catarrhalis, 10 h cultivation at 37° C.
[29] = C. diversus, 10 h cultivation at 37° C.
[30] = P. mirabilis, 10 h cultivation at 37° C.
[31] = P. vulgaris, 10 h cultivation at 37° C.

Substance	MIC (μg/mL) A. hydrophila [1, 12]	MIC (μg/mL) K. pneumonia [2, 13]	MIC (μg/mL) P. aeruginosa [3, 14]	MIC (μg/mL) S. marcescens [4, 15]	MIC (μg/mL) E. coli BL21 [5, 16]	MIC (μg/mL) E. cloacae [6, 17]	MIC (μg/mL) M. catarrhalis [7, 18]	MIC (μg/mL) C. diversus [8, 19]	MIC (μg/mL) P. mirabilis [9, 20]	MIC [10]	MIC (μg/mL) P. vulgaris [11, 21]	MIC (μg/mL) A. hydrophila [1, 22]	MIC (μg/mL) K. pneumonia [2, 23]	MIC (μg/mL) P. aeruginosa [3, 24]	MIC (μg/mL) S. marcescens [4, 25]	MIC (μg/mL) E. coli BL21 [5, 26]	MIC (μg/mL) E. cloacae [6, 27]	MIC (μg/mL) M. catarrhalis [7, 28]	MIC (μg/mL) C. diversus [8, 29]	MIC (μg/mL) P. mirabilis [9, 30]	other results
PRT68 (RSGRCANGVCKNGGTCVNLLIGGFHCVCPPGEYERPYCE; listed as Homo sapiens)	12.5 µg/mL	25 µg/mL	12.5 µg/mL	100 µg/mL	25 µg/mL	12.5 µg/mL	12.5 µg/mL	12.5 µg/mL	12.5 µg/mL	12.5 µg/mL	12.5 µg/mL	–	–	–	–	–	–	–	–	–	–
PRT41 (CDRPCVNGGRCNPGTGQCVCPAGWVGEQC; listed as Homo sapiens)	12.5 µg/mL	12.5 µg/mL	25 µg/mL	50 µg/mL	12.5 µg/mL	25 µg/mL	12.5 µg/mL	25 µg/mL	25 µg/mL	25 µg/mL	12.5 µg/mL	–	–	–	–	–	–	–	–	–	–
PRT853 (DLNECGLKPRPCKHRCMNTYGSYKCYCLNGYMLMPDGSCS; listed as Homo sapiens)	–	–	–	–	–	–	–	–	–	25 µg/mL	–	12.5 µg/mL	50 µg/mL	25 µg/mL	12.5 µg/mL	12.5 µg/mL	25 µg/mL	50 µg/mL	25 µg/mL	25 µg/mL	MIC (μg/mL) P. vulgaris [11, 31]: 25 µg/mL
PRT1198 (EHDECGSGQHNCDENAICTNTVQGHSCTCKPGYVGNGTICR; listed as Homo sapiens)	–	–	–	–	–	–	–	–	–	25 µg/mL	–	–	–	–	–	–	–	–	–	–	MIC against A. hydrophila [1, 12]: 50 µg/mL; MIC against K. pneumonia [2, 13]: 50 µg/mL; MIC against P. aeruginosa [3, 14]: 25 µg/mL; MIC against S. marcescens [4, 15]: 12.5 µg/mL; MIC against E. coli BL21 [5, 16]: 12.5 µg/mL; MIC against E. cloacae [6, 17]: 12.5 µg/mL; MIC against M. catarrhalis [7, 18]: 12.5 µg/mL; MIC against C. diversus [8, 19]: 25 µg/mL; MIC against P. mirabilis [9, 20]: 50 µg/mL; MIC against P. vulgaris [11, 21]: 25 µg/mL
PRT534 (CKCHKAGTVSGTGECRQGDGDCHCKSHVGGDSCDTCEDGYFALEKSNYFGCQG; listed as Homo sapiens)	–	–	–	–	–	–	–	–	–	50 µg/mL	–	–	–	–	–	–	–	–	–	–	MIC against A. hydrophila ([1]; 96-well plate, 37° C., 10 h): 12.5 µg/mL; MIC against K. pneumonia ([2]; 96-well plate, 37° C., 10 h): 12.5 µg/mL; MIC against P. aeruginosa ([3]; 96-well plate, 37° C., 10 h): 50 µg/mL; MIC against S. marcescens ([4]; 96-well plate, 37° C., 10 h): 25 µg/mL; MIC against E. coli BL21 ([5]; 96-well plate, 37° C., 10 h): 12.5 µg/mL; MIC against E. cloacae ([6]; 96-well plate, 37° C., 10 h): 50 µg/mL; MIC against M. catarrhalis ([7]; 96-well plate, 37° C., 10 h): 12.5 µg/mL; MIC against C. diversus ([8]; 96-well plate, 37° C., 10 h): 50 µg/mL; MIC against P. mirabilis ([9]; 96-well plate, 37° C., 10 h): 25 µg/mL; MIC against P. vulgaris ([11]; 96-well plate, 37° C., 10 h): 50 µg/mL
PRT889 (DVNECVSNPCQNDATCLDQIGEFQCICMPGYEGVHCE; listed as Homo sapiens)	–	–	–	–	–	–	–	–	–	25 µg/mL	–	12.5 µg/mL	12.5 µg/mL	25 µg/mL	25 µg/mL	12.5 µg/mL	12.5 µg/mL	12.5 µg/mL	12.5 µg/mL	25 µg/mL	MIC (μg/mL) P. vulgaris [11, 31]: 12.5 µg/mL

Source: patent US9833497B2, “Human originated EGF domain proteins and use of the same” (CHENGDU SOURCEBIO LIMITED-LIABILITY COMPANY, priority 2013, dated 2017)
